In publication PMC8920474 (Current Research in Chemical Biology, 2022):

Experiments:
TMPRSS2 = TMPRSS2 (Homo sapiens, UniProt O15393); assay: VeroE6/TMPRSS2 cell-based TMPRSS2 enzyme inhibitory assay; conditions: VeroE6/TMPRSS2 cells; up to a concentration of 4.0 μM
furin = furin (Homo sapiens, UniProt P09958); assay: Vero/furin cell-based furin enzyme inhibitory assay; conditions: for furin inhibitory activity: Vero/furin cells, up to a concentration of 40.0 μM
TMPRSS2 in LNCaP cells = system: TMPRSS2 in LNCaP cells; set-up: species or system human; conditions: read-out: IC50, LNCaP cell-based proteolytic enzyme inhibition

Chain of furin (P09958 108-794): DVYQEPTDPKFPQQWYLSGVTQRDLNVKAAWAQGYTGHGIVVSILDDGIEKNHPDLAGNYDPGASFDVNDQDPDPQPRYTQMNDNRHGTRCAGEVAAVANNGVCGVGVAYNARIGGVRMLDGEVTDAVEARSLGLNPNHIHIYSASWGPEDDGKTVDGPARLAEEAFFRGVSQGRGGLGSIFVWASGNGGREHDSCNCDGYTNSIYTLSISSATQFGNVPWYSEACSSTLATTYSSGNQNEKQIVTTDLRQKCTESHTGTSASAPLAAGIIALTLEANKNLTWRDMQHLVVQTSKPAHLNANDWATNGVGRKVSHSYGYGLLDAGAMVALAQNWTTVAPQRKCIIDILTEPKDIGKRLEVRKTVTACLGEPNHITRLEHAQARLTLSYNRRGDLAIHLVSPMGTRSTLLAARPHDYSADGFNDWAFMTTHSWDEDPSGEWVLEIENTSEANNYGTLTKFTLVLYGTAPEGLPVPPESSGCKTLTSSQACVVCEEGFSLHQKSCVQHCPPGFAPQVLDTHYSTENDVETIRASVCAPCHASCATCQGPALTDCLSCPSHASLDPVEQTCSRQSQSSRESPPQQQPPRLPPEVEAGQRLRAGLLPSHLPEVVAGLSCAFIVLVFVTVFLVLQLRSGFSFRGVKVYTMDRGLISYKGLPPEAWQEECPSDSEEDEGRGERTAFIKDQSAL
Chain of TMPRSS2 (O15393 whole entry): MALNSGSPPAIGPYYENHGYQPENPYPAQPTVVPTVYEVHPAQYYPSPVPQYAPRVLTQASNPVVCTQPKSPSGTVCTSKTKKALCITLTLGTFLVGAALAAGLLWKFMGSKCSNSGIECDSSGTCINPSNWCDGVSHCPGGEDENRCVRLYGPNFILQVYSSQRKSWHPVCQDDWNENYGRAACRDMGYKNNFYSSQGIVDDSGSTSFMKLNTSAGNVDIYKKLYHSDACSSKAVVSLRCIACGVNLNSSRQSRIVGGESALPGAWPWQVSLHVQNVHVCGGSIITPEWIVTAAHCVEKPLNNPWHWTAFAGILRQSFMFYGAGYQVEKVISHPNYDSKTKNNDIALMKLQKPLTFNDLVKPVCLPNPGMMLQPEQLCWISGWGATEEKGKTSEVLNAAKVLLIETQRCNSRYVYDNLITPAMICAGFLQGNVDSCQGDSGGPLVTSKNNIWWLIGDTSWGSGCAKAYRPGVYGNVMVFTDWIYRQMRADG

## CN(Cc1cc(Br)cc(Br)c1N)C1CCCCC1 [Bromhexine, bromhexine]
TMPRSS2
  TMPRSS2 inhibitory activity: inactive

## N=C(N)c1ccc2cc(OC(=O)c3ccc(N=C(N)N)cc3)ccc2c1 [nafamostat]
furin
  furin inhibitory activity: inactive

## CN(C)C(=O)COC(=O)Cc1ccc(OC(=O)c2ccc(NC(=N)N)cc2)cc1 [camostat]
TMPRSS2 in LNCaP cells
  IC50: 0.026 ± 0.03 µM
furin
  furin inhibitory activity: inactive

## N=C(N)c1ccc(/N=N/Nc2ccc(C(=N)N)cc2)cc1 [diminazene]
furin
  IC50: 13.2 µM
